In assay [1] the target is T1, Gastric inhibitory polypeptide receptor (Homo sapiens, UniProt P48546).
T1 sequence (P48546 whole entry): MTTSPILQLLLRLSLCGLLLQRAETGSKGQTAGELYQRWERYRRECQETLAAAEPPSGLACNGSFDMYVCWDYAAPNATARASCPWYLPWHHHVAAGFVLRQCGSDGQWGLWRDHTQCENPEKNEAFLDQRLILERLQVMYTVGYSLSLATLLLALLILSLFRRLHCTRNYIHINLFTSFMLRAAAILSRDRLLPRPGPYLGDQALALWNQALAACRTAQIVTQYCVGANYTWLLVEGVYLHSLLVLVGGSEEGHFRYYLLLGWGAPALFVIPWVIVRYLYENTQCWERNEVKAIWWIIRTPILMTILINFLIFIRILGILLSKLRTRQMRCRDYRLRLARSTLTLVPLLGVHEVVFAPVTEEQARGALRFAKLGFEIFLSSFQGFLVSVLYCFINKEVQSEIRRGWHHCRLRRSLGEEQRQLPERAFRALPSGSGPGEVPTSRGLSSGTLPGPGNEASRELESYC
Put plainly: Agonist activity at human GIPR expressed in CHO cells assessed as increase in cAMP production incubated for 30 mins by Eu-cAMP tracer based microplate reader analysis. Type of assay: functional, cell-based.

Assay [2] deals with Glucagon-like peptide 1 receptor (Homo sapiens, UniProt P43220). Put plainly: Agonist activity at human GLP-1R expressed in CHO cells assessed as increase in cAMP production incubated for 30 mins by Eu-cAMP tracer based microplate reader analysis. In kind it is functional, cell-based. On the technique in general: Changes in cAMP serve as a functional read-out for many G protein-coupled receptors.
Glucagon-like peptide 1 receptor, sequence (P43220 whole entry): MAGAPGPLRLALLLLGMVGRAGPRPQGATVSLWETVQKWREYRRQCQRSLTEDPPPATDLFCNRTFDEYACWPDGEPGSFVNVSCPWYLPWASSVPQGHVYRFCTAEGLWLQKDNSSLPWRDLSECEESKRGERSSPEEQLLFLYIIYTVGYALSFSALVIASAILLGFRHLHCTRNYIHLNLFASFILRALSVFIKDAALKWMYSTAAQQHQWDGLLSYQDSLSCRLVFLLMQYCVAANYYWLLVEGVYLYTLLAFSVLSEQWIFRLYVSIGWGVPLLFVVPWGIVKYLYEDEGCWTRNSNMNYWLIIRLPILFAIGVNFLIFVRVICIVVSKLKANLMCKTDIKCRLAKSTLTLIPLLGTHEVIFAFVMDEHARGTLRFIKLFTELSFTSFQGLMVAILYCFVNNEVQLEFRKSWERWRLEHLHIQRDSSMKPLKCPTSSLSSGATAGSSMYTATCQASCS

Molecules are shown by their SMILES. pEC50: −log10 of the molar value. Where a SMILES comes first, the peptide text is derived from it. [ ]: non-standard residue; d: D form. The star is where a group is joined. X1 = N[C@@H](CCCCNC(=O)CC[C@H](NC(=O)CCCCCCCCCCCCCCCCCCC(=O)O)C(=O)O)C(=O)NCCCC[C@H](N)C(=O)N[C@@H](CCCCNC(=O)C*)C(=O)O; X6 = N[C@@H](CCCCNC(=O)CC[C@H](NC(=O)CCCCCCCCCCCCCCCCC(=O)O)C(=O)O)C(=O)NCCCC[C@H](N)C(=O)N[C@@H](CCCCNC(=O)C*)C(=O)O; X3 = O=C(O)CCCCCCCCCCCCCCCCC(=O)NCCOCCOCC(=O)N[C@@H](CCC(=O)N[C@@H](CCC(=O)N[C@@H](CCCCNC(=O)C*)C(=O)O)C(=O)O)C(=O)O; X5 = O=C(O)CCCCCCCCCCCCCCCCCCC(=O)N[C@@H](CCC(=O)NCCOCCOCC(=O)NCCOCCOCC(=O)N[C@@H](CCCCNC(=O)C*)C(=O)O)C(=O)O; Aib = CC(C)(N)C(=O)O

Turning to `CC(C)C[C@H](NC(=O)[C@H](CC(C)C)NC(=O)[C@H](Cc1c[nH]c2ccccc12)NC(=O)[C@H](CSCC(=O)NCCCC[C@H](NC(=O)CC[C@H](NC(=O)CC[C@H](NC(=O)COCCOCCNC(=O)CCCCCCCCCCCCCCCCC(=O)O)C(=O)O)C(=O)O)C(=O)O)NC(=O)[C@@H](NC(=O)[C@H](Cc1ccccc1)NC(=O)[C@H](CC(C)C)NC(=O)[C@H](CCCCN)NC(=O)[C@H](C)NC(=O)[C@H](C)NC(=O)[C@H](CCC(N)=O)NC(=O)[C@H](CCCCN)NC(=O)[C@H](CCC(=O)O)NC(=O)[C@H](CC(C)C)NC(=O)[C@H](Cc1ccc(O)cc1)NC(=O)[C@H](Cc1ccc(O)cc1)NC(=O)[C@H](CO)NC(=O)[C@H](Cc1ccc(O)cc1)NC(=O)[C@H](CC(=O)O)NC(=O)[C@H](CO)NC(=O)[C@@H](NC(=O)[C@H](Cc1ccccc1)NC(=O)[C@@H](NC(=O)CNC(=O)[C@H](CCC(=O)O)NC(=O)C(C)(C)NC(=O)[C@@H](N)Cc1ccc(O)cc1)[C@@H](C)O)[C@@H](C)O)C(C)C)C(=O)N[C@@H](C)C(=O)NCC(=O)NCC(=O)N1CCC[C@H]1C(=O)N[C@@H](CO)C(=O)N[C@@H](CO)C(=O)NCC(=O)N[C@@H](C)C(=O)N1CCC[C@H]1C(=O)N1CCC[C@H]1C(=O)N1CCC[C@H]1C(=O)N[C@@H](CO)C(N)=O` (H-Y[Aib]EGTFTSDYSYYLEKQAAKLFVC(X3)WLLAGGPSSGAPPPS-NH2), the pEC50 (as a rule, −log10 of the EC50, conventionally taken in molar units) in assay [1] was 9.34; in assay [2], 9.54.

Turning to `CC(C)C[C@H](NC(=O)[C@H](CCCCN)NC(=O)[C@H](C)NC(=O)[C@H](C)NC(=O)[C@H](CCC(N)=O)NC(=O)[C@H](CCCCN)NC(=O)[C@H](CCC(=O)O)NC(=O)[C@H](CC(C)C)NC(=O)[C@H](Cc1ccc(O)cc1)NC(=O)[C@H](Cc1ccc(O)cc1)NC(=O)[C@H](CO)NC(=O)[C@H](Cc1ccc(O)cc1)NC(=O)[C@H](CC(=O)O)NC(=O)[C@H](CO)NC(=O)[C@@H](NC(=O)[C@H](Cc1ccccc1)NC(=O)[C@@H](NC(=O)CNC(=O)[C@H](CCC(=O)O)NC(=O)C(C)(C)NC(=O)[C@@H](N)Cc1ccc(O)cc1)[C@@H](C)O)[C@@H](C)O)C(=O)N[C@@H](Cc1ccccc1)C(=O)N[C@H](C(=O)N[C@@H](CCC(N)=O)C(=O)N[C@@H](Cc1c[nH]c2ccccc12)C(=O)N[C@@H](CC(C)C)C(=O)N[C@@H](CS)C(=O)N[C@@H](C)C(=O)NCC(=O)NCC(=O)N1CCC[C@H]1C(=O)N[C@@H](CO)C(=O)N[C@@H](CO)C(=O)NCC(=O)N[C@@H](C)C(=O)N1CCC[C@H]1C(=O)N1CCC[C@H]1C(=O)N1CCC[C@H]1C(=O)N[C@@H](CO)C(N)=O)C(C)C` (H-Y[Aib]EGTFTSDYSYYLEKQAAKLFVQWLCAGGPSSGAPPPS-NH2), the results for the pEC50 in assay [1] and in assay [2] were 8.63 and 8.55, respectively.

Regarding `CC(C)C[C@H](NC(=O)[C@H](CC(C)C)NC(=O)[C@H](Cc1c[nH]c2ccccc12)NC(=O)[C@H](CSCC(=O)NCCCC[C@H](NC(=O)[C@@H](N)CCCCNC(=O)[C@@H](N)CCCCNC(=O)CC[C@H](NC(=O)CCCCCCCCCCCCCCCCC(=O)O)C(=O)O)C(=O)O)NC(=O)[C@@H](NC(=O)[C@H](Cc1ccccc1)NC(=O)[C@H](CC(C)C)NC(=O)[C@H](CCCCN)NC(=O)[C@H](C)NC(=O)[C@H](C)NC(=O)[C@H](CCC(N)=O)NC(=O)[C@H](CCCCN)NC(=O)[C@H](CCC(=O)O)NC(=O)[C@H](CC(C)C)NC(=O)[C@H](Cc1ccc(O)cc1)NC(=O)[C@H](Cc1ccc(O)cc1)NC(=O)[C@H](CO)NC(=O)[C@H](Cc1ccc(O)cc1)NC(=O)[C@H](CC(=O)O)NC(=O)[C@H](CO)NC(=O)[C@@H](NC(=O)[C@H](Cc1ccccc1)NC(=O)[C@@H](NC(=O)CNC(=O)[C@H](CCC(=O)O)NC(=O)C(C)(C)NC(=O)[C@@H](N)Cc1ccc(O)cc1)[C@@H](C)O)[C@@H](C)O)C(C)C)C(=O)N[C@@H](C)C(=O)NCC(=O)NCC(=O)N1CCC[C@H]1C(=O)N[C@@H](CO)C(=O)N[C@@H](CO)C(=O)NCC(=O)N[C@@H](C)C(=O)N1CCC[C@H]1C(=O)N1CCC[C@H]1C(=O)N1CCC[C@H]1C(=O)N[C@@H](CO)C(N)=O` (H-Y[Aib]EGTFTSDYSYYLEKQAAKLFVC(X6)WLLAGGPSSGAPPPS-NH2), the results for the pEC50 in assay [1] and in assay [2] were 8.56 and 9.40, respectively.

Take `CC(C)C[C@H](NC(=O)[C@H](CC(C)C)NC(=O)[C@H](Cc1c[nH]c2ccccc12)NC(=O)[C@H](CCC(N)=O)NC(=O)[C@@H](NC(=O)[C@H](Cc1ccccc1)NC(=O)[C@H](CC(C)C)NC(=O)[C@H](CSCC(=O)NCCCC[C@H](NC(=O)COCCOCCNC(=O)COCCOCCNC(=O)CC[C@H](NC(=O)CCCCCCCCCCCCCCCCCCC(=O)O)C(=O)O)C(=O)O)NC(=O)[C@H](C)NC(=O)[C@H](C)NC(=O)[C@H](CCC(N)=O)NC(=O)[C@H](CCCCN)NC(=O)[C@H](CCC(=O)O)NC(=O)[C@H](CC(C)C)NC(=O)[C@H](Cc1ccc(O)cc1)NC(=O)[C@H](Cc1ccc(O)cc1)NC(=O)[C@H](CO)NC(=O)[C@H](Cc1ccc(O)cc1)NC(=O)[C@H](CC(=O)O)NC(=O)[C@H](CO)NC(=O)[C@@H](NC(=O)[C@H](Cc1ccccc1)NC(=O)[C@@H](NC(=O)CNC(=O)[C@H](CCC(=O)O)NC(=O)C(C)(C)NC(=O)[C@@H](N)Cc1ccc(O)cc1)[C@@H](C)O)[C@@H](C)O)C(C)C)C(=O)N[C@@H](C)C(=O)NCC(=O)NCC(=O)N1CCC[C@H]1C(=O)N[C@@H](CO)C(=O)N[C@@H](CO)C(=O)NCC(=O)N[C@@H](C)C(=O)N1CCC[C@H]1C(=O)N1CCC[C@H]1C(=O)N1CCC[C@H]1C(=O)N[C@@H](CO)C(N)=O` (H-Y[Aib]EGTFTSDYSYYLEKQAAC(X5)LFVQWLLAGGPSSGAPPPS-NH2): the pEC50 in assay [1] was 8.88; in assay [2], 9.31.

As for `CC(C)C[C@H](NC(=O)[C@H](CC(C)C)NC(=O)[C@H](Cc1c[nH]c2ccccc12)NC(=O)[C@H](CCC(N)=O)NC(=O)[C@@H](NC(=O)[C@H](Cc1ccccc1)NC(=O)[C@H](CC(C)C)NC(=O)[C@H](CSCC(=O)NCCCC[C@H](NC(=O)[C@@H](N)CCCCNC(=O)[C@@H](N)CCCCNC(=O)CC[C@H](NC(=O)CCCCCCCCCCCCCCCCC(=O)O)C(=O)O)C(=O)O)NC(=O)[C@H](C)NC(=O)[C@H](C)NC(=O)[C@H](CCC(N)=O)NC(=O)[C@H](CCCCN)NC(=O)[C@H](CCC(=O)O)NC(=O)[C@H](CC(C)C)NC(=O)[C@H](Cc1ccc(O)cc1)NC(=O)[C@H](Cc1ccc(O)cc1)NC(=O)[C@H](CO)NC(=O)[C@H](Cc1ccc(O)cc1)NC(=O)[C@H](CC(=O)O)NC(=O)[C@H](CO)NC(=O)[C@@H](NC(=O)[C@H](Cc1ccccc1)NC(=O)[C@@H](NC(=O)CNC(=O)[C@H](CCC(=O)O)NC(=O)C(C)(C)NC(=O)[C@@H](N)Cc1ccc(O)cc1)[C@@H](C)O)[C@@H](C)O)C(C)C)C(=O)N[C@@H](C)C(=O)NCC(=O)NCC(=O)N1CCC[C@H]1C(=O)N[C@@H](CO)C(=O)N[C@@H](CO)C(=O)NCC(=O)N[C@@H](C)C(=O)N1CCC[C@H]1C(=O)N1CCC[C@H]1C(=O)N1CCC[C@H]1C(=O)N[C@@H](CO)C(N)=O` (H-Y[Aib]EGTFTSDYSYYLEKQAAC(X6)LFVQWLLAGGPSSGAPPPS-NH2), the pEC50 in assay [1] was 7.72; in assay [2] it was 8.90.

Turning to `CC(C)C[C@H](NC(=O)[C@H](CC(C)C)NC(=O)[C@H](Cc1c[nH]c2ccccc12)NC(=O)[C@H](CCC(N)=O)NC(=O)[C@@H](NC(=O)[C@H](Cc1ccccc1)NC(=O)[C@H](CC(C)C)NC(=O)[C@H](CCCCN)NC(=O)[C@H](C)NC(=O)[C@H](C)NC(=O)[C@H](CCC(N)=O)NC(=O)[C@H](CCCCN)NC(=O)[C@H](CCC(=O)O)NC(=O)[C@H](CC(C)C)NC(=O)[C@H](CSCC(=O)NCCCC[C@H](NC(=O)[C@@H](N)CCCCNC(=O)[C@@H](N)CCCCNC(=O)CC[C@H](NC(=O)CCCCCCCCCCCCCCCCCCC(=O)O)C(=O)O)C(=O)O)NC(=O)[C@H](Cc1ccc(O)cc1)NC(=O)[C@H](CO)NC(=O)[C@H](Cc1ccc(O)cc1)NC(=O)[C@H](CC(=O)O)NC(=O)[C@H](CO)NC(=O)[C@@H](NC(=O)[C@H](Cc1ccccc1)NC(=O)[C@@H](NC(=O)CNC(=O)[C@H](CCC(=O)O)NC(=O)C(C)(C)NC(=O)[C@@H](N)Cc1ccc(O)cc1)[C@@H](C)O)[C@@H](C)O)C(C)C)C(=O)N[C@@H](C)C(=O)NCC(=O)NCC(=O)N1CCC[C@H]1C(=O)N[C@@H](CO)C(=O)N[C@@H](CO)C(=O)NCC(=O)N[C@@H](C)C(=O)N1CCC[C@H]1C(=O)N1CCC[C@H]1C(=O)N1CCC[C@H]1C(=O)N[C@@H](CO)C(N)=O` (H-Y[Aib]EGTFTSDYSYC(X1)LEKQAAKLFVQWLLAGGPSSGAPPPS-NH2), the pEC50 in assay [1] was 9.85; in assay [2], 9.34.

With `CC(C)C[C@H](NC(=O)[C@H](CC(C)C)NC(=O)[C@H](Cc1c[nH]c2ccccc12)NC(=O)[C@H](CCC(N)=O)NC(=O)[C@@H](NC(=O)[C@H](Cc1ccccc1)NC(=O)[C@H](CC(C)C)NC(=O)[C@H](CCCCN)NC(=O)[C@H](C)NC(=O)[C@H](C)NC(=O)[C@H](CCC(N)=O)NC(=O)[C@H](CCCCN)NC(=O)[C@H](CCC(=O)O)NC(=O)[C@H](CC(C)C)NC(=O)[C@H](CSCC(=O)NCCCC[C@H](NC(=O)COCCOCCNC(=O)COCCOCCNC(=O)CC[C@H](NC(=O)CCCCCCCCCCCCCCCCCCC(=O)O)C(=O)O)C(=O)O)NC(=O)[C@H](Cc1ccc(O)cc1)NC(=O)[C@H](CO)NC(=O)[C@H](Cc1ccc(O)cc1)NC(=O)[C@H](CC(=O)O)NC(=O)[C@H](CO)NC(=O)[C@@H](NC(=O)[C@H](Cc1ccccc1)NC(=O)[C@@H](NC(=O)CNC(=O)[C@H](CCC(=O)O)NC(=O)C(C)(C)NC(=O)[C@@H](N)Cc1ccc(O)cc1)[C@@H](C)O)[C@@H](C)O)C(C)C)C(=O)N[C@@H](C)C(=O)NCC(=O)NCC(=O)N1CCC[C@H]1C(=O)N[C@@H](CO)C(=O)N[C@@H](CO)C(=O)NCC(=O)N[C@@H](C)C(=O)N1CCC[C@H]1C(=O)N1CCC[C@H]1C(=O)N1CCC[C@H]1C(=O)N[C@@H](CO)C(N)=O` (H-Y[Aib]EGTFTSDYSYC(X5)LEKQAAKLFVQWLLAGGPSSGAPPPS-NH2), the negative-log EC50 (pEC50) in assay [1] was 9.38; in assay [2], 8.87.

The record behind these values is ChEMBL document CHEMBL5576038, “Design of a novel long-acting dual GLP-1/GIP receptor agonist” (Bioorg Med Chem, 2024).
